Measurements taken from patent US9416145B2, “Compositions and methods for inhibiting activity of hypoxia-inducible transcription factor complex and its use for treatment of tumors” (priority 2012, dated 2016).

Columns and labels:
[1] = tested on: c-Met protein in MDA-MB-231 cells; test: Western blot of c-Met protein levels in MDA-MB-231 cells; assay type: cell-based, human; conditions: MDA-MB-231, 400 nM, HIF1α induced with 150 μM CoCl2
Method: Western blot analysis of VEGF and c-Met protein levels. MCF7 and MDA-MB-231 cells were plated in 60 mm diameter cell culture dishes (BD Falcon) to a density of 1.0×10^6 cells/mL. […] All samples contained a final concentration 0.1-0.2% v/v of DMSO. After a 6 hour incubation period, hypoxia was induced with 300 μM DFO in MCF7 and with […] in MDA-MB-231 cells. Samples were incubated for an additional 18 hours. Total cellular proteins were extracted from the cells using cell lysis buffer according to manufacturer's protocol (Cell Signaling). Protein concentrations were measured with BCA Protein assay kit (Pierce/Thermo Scientific). Equal amounts of protein samples were subjected to SDS-PAGE and electroblotted to PVDF membrane (Bio-Rad). These were probed first with an anti-VEGF mouse monoclonal (sc-57496, Santa Cruz Biotechnology) or anti c-Met rabbit polyclonal antibody (sc-10, Santa Cruz Biotechnology), stripped with Restore Western Blot Stripping Buffer (Pierce/Thermo Scientific) and re-probed with a rabbit polyclonal anti-β-actin antibody (4867, Cell Signaling).
After washing with tris-buffered saline—Tween 20 (TBST) solution, the membranes were incubated with horseradish peroxidase (HRP)-conjugated secondary antibodies (Santa Cruz Biotechnology). Signals were detected by using SuperSignal chemiluminescent kit (Pierce/Thermo Scientific).

[2] = tested on: HIF1 inducible promoter (hRE-hCMV-Luc) in MDA-MB-231 cells; test: Luciferase assay of hypoxia-inducible promoter activity; assay type: cell-based, human; conditions: MDA-MB-231 hRE-hCMV-Luc, 300 uM desferrioxamine mesylate 18 h; 200 nM and 600 nM
Method: We first examined the effect of designed ETPs on activation of the HIF1 inducible promoters. […] In the course of the experiment, cells were incubated with ETPs LS69, LS72, LS75 and DKP compound NP481. In parallel, untreated cells with only vehicle (DMSO) added, were used as controls. Hypoxia conditions were induced by incubating cells with 300 uM desferrioxamine mesylate for 18 h. Cells were harvested, lysed and the levels of luciferase were determined by a luminometer.
Luciferase assays. MDA-MB-231-hRE-Luc cells were maintained in high glucose Dulbecco's Modified Eagles' Medium (DMEM) supplemented with 10%© fetal bovine serum and 0.4 g/L Geneticin (G418 sulfate, RPI Corporation). Cells were plated in 24-well dishes (BD Falcon) at a density of 6×10^4 cells/well using 1 mL of a 6.5×10^4 cell/mL suspension. […] Cells were incubated for 6 h at 37° C. in a humidified atmosphere with 5% CO2. Hypoxia was induced by adding desferrioxamine mesylate (DFO, Sigma) to a final concentration of 300 μM, and cells were incubated for an additional 18 hours. Whole cell lysate was isolated by washing the cells twice with ice cold PBS and then adding 150 μL of Cell Culture Lysis Reagent (CCLR, Promega). Lysate was collected, centrifuged at 13,000 rpm at 4° C., aliquoted, and stored at −80° C. Luciferase assays were conducted by allowing whole cell lysate and Luciferase Assay Reagent (Promega) come to ambient temperature for 1 hour prior to use. Luciferase assays were conducted according to the manufacturer's instructions (Promega) using a Turner TD-20e Luminometer. Relative light intensity measurements were normalized by performing a Bradford assay to determine the protein content of the lysate used in the luciferase assay. Briefly, 50 μL of cell lysate/luciferase assay reagent mix was added to 200 μL of Bradford reagent and 750 μl, of Millipore water in a 1.5 mL cuvette. Protein standards were created in the range of 1 mg/mL to 10 μg/mL using an appropriate amount of a 1 mg/mL BSA solution. Absorbance was measured at 595 nm using a DU-800 spectrophotometer. The experiments were carried out in triplicate. The results are presented in FIG. 6 with the bar graphs represent mean values, and error bars—standard error of the mean value.

c-Met mRNA in A549 cells = test: qRT-PCR of c-Met mRNA in A549 cells; assay type: cell-based; conditions: 300 μM DFO
Method: FIG. 13 mRNA levels of three HIF1α inducible genes: VEGF, c-Met and Glut1 in A549 cells after treatment with LS72. Data from qRT-PCR experiments showing mRNA levels of three HIF1α inducible genes, VEGF, c-Met and Glut1 in A549 after treatment of the cells in a medium with 0.2% serum with LS72 (400 nM). Hypoxia was induced 300 μM by DFO. Error bars are ±s.e.m for the experiments performed in […]. Error bars are ±s.e.m. of experiments performed in triplicate. ***P<0.001, ** P<0.01, t test.
FIG. 16 mRNA levels for c-Met in A549 cell line showing dose response to LS72 at concentrations of 100 nM, 400 nM, 1600 nM. qRT-PCR was used to determine the mRNA levels of c-Met Hypoxia was induced with DFO (300 μM). Error bars are ±sem for the experiments performed in triplicate. Error bars are ±s.e.m. of experiments performed in triplicate. *** P<0.001, **P<0.01, # P<0.1, t test.
After tests with various serum levels in the media and hypoxia induction methods, the conditions that worked remarkably and consistently well for the induction of HIF1α dependent genes were to keep A549 cells in 2% serum followed by treating cells with compound or control in the media with 0.2% serum for 48 h (FIG. 13). […]

`CN1C(=O)[C@]2(Cc3ccc(CCc4ccc(C[C@@]56SS[C@@](CO)(C(=O)N5C)N(C)C6=O)cc4)cc3)SS[C@@]1(CO)C(=O)N2C` (racemic) [LS72, 4,4′-((ethane-1,2-diylbis(4,1-phenylene))bis(methylene))bis(1-(hydroxymethyl)-5,7-dimethyl-2,3-dithia-5,7-diazabicyclo[2.2.2]octane-6,8-dione)] was tested, and the “c-Met protein levels (western blot)” value [1] was “significant downregulation”, the “hypoxia-inducible promoter activity (luciferase)” value [2] was “significant reduction in hypoxia-inducible promoter activity” and the “c-Met transcriptional upregulation, dose response” value (c-Met mRNA in A549 cells; A549 85% confluent, 100 nM, 400 nM, 1600 nM) was “Dose-dependent decrease”. The “c-Met mRNA level (in words)” value (c-Met mRNA in A549 cells; A549, LS72 400 nM, 0.2% serum, 48 h) was “significantly downregulated, essentially reaching its normoxic levels”.
